Results as given in US11505553B2, “2-(Het)aryl-substituted fused heterocycle derivatives as pesticides” (Bayer Aktiengesellschaft, priority 2017, dated 2022).
Like-named read-outs stand apart in the source and are kept apart here.

Key:
Assay type in all cases: in vivo
Nilaparvata lugens [1] = assay: Nilaparvata lugens spray test (NILALU); conditions: 96 h, 4 dat, read-out: % efficacy
Description: Solvent: 52.5 parts by weight of acetone • 7 parts by weight of dimethylformamide
Emulsifier: alkylaryl polyglycol ether
To produce an appropriate active ingredient formulation, 1 part by weight of active ingredient is dissolved with the stated parts by weight of solvent and made up with water containing an emulsifier concentration of 1000 ppm until the desired concentration is attained. For production of further test concentrations, the mixture is diluted with emulsifier-containing water. If addition of ammonium salts or/and penetrants is required, these are each added to the preparation solution in a concentration of 1000 ppm.
Rice plants (Oryza sativa) are sprayed with an active ingredient formulation of the desired concentration and then populated with larvae of the rice cicada (Nilaparvata lugens).
After the desired time, the efficacy in % is determined. 100% means that all rice cicadas have been killed; 0% means that no rice cicadas have been killed.

Myzus persicae [2] = assay: Myzus persicae drench test (MYZUPE D); conditions: soil, 240 h, 10 dat, read-out: % efficacy
Description: Solvent: 7 parts by weight of dimethylformamide Emulsifier: 2 parts by weight of alkylaryl polyglycol ether To produce an appropriate active ingredient formulation, 1 part by weight of active ingredient is mixed with the stated amounts of solvent and emulsifier, and the concentrate is diluted with water to the desired concentration, it being necessary to take into account soil volume into which drenching is effected. It should be ensured that a concentration of 40 ppm of emulsifier in the soil is not exceeded. For production of further test concentrations, the mixture is diluted with water. Savoy cabbage plants (Brassica oleracea) in earth pots, infested by all stages of the green peach aphid (Myzus persicae), are drenched with an active ingredient formulation of the desired concentration. After the desired time, the efficacy in % is determined. 100% means that all aphids have been killed; 0% means that no aphids have been killed.

Myzus persicae [3] = assay: Myzus persicae spray test (MYZUPE), contrastive examples; conditions: 120 h, 5 dat, read-out: % efficacy
Description: Solvent: 78.0 parts by weight of acetone • • 1.5 parts by weight of dimethylformamide Emulsifier: alkylaryl polyglycol ether To produce a suitable active ingredient formulation, 1 part by weight of active ingredient is dissolved with the specified parts by weight of solvent and made up to the desired concentration with water containing an emulsifier concentration of 1000 ppm. To produce further test concentrations, the formulation is diluted with emulsifier-containing water. Discs of chinese cabbage leaves (Brassica pekinensis) infested by all stages of the green peach aphid (Myzus persicae) are sprayed with an active ingredient formulation of the desired concentration. After the desired time, the efficacy in % is determined. 100% means that all aphids have been killed; 0% means that no aphids have been killed.

Tetranychus urticae = Tetranychus urticae spray test; OP-resistant (TETRUR), contrastive examples; conditions: 144 h, 6 dat, read-out: % efficacy
Description: Solvent: 78.0 parts by weight of acetone • • 1.5 parts by weight of dimethylformamide Emulsifier: alkylaryl polyglycol ether To produce an appropriate active ingredient formulation, 1 part by weight of active ingredient is dissolved with the stated parts by weight of solvent and made up with water containing an emulsifier concentration of 1000 ppm until the desired concentration is attained. For production of further test concentrations, the mixture is diluted with emulsifier-containing water. Discs of bean leaves (Phaseolus vulgaris) infested by all stages of the common spider mite (Tetranychus urticae) are sprayed with an active ingredient formulation of the desired concentration. After the desired time, the efficacy in % is determined. 100% means that all spider mites have been killed; 0% means that no spider mites have been killed.

Nilaparvata lugens [4] = assay: Nilaparvata lugens test (NILALU S); conditions: read-out: % efficacy
Description: Solvent: 14 parts by weight of dimethylformamide Emulsifier: 2 parts by weight of alkylaryl polyglycol ether To produce an appropriate active ingredient formulation, 1 part by weight of active ingredient is dissolved with the stated parts by weight of solvent and emulsifier and made up with water until the desired concentration is attained. For production of further test concentrations, the mixture is diluted with water. If addition of ammonium salts or/and penetrants (rapeseed oil methyl ester) is required, these are each pipetted into the finished preparation solution in a concentration of 1000 ppm after the dilution. Rice plants (Oryza sativa, var. Balilla) are treated by spraying with the active ingredient formulation in the desired concentration and then populated with L3 larvae of the brown planthopper (Nilaparvata lugens). After the desired time, the kill in % is determined. 100% means that all planthoppers have been killed and 0%, means that no planthoppers have been killed.

Nezara viridula = Nezara viridula spray test (NEZARA); conditions: 96 h, NEZAVI, 4 dat, read-out: % efficacy
Description: Solvent: 52.5 parts by weight of acetone • 7 parts by weight of dimethylformamide Emulsifier: alkylaryl polyglycol ether To produce an appropriate active ingredient formulation, 1 part by weight of active ingredient is dissolved with the stated parts by weight of solvent and made up with water containing an emulsifier concentration of 1000 ppm until the desired concentration is attained. For production of further test concentrations, the mixture is diluted with emulsifier-containing water. If addition of ammonium salts or/and penetrants is required, these are each added to the preparation solution in a concentration of 1000 ppm. Barley plants (Hordeum vulgare) infested with larvae of the southern green shield bug (Nezara viridula) are sprayed with an active ingredient formulation of the desired concentration. After the desired time, the efficacy in % is determined. 100% means that all bugs have been killed; 0% means that no bugs have been killed.

Aphis gossypii = Aphis gossypii spray test (APHIGO); conditions: 144 h, 6 dat, read-out: % efficacy
Description: Solvent: 14 parts by weight of dimethylformamide Emulsifier: alkylaryl polyglycol ether To produce an appropriate active ingredient formulation, 1 part by weight of active ingredient is dissolved with the stated parts by weight of solvent and made up with water containing an emulsifier concentration of 1000 ppm until the desired concentration is attained. For production of further test concentrations, the mixture is diluted with emulsifier-containing water. If addition of ammonium salts or/and penetrants is required, these are each added to the preparation solution in a concentration of 1000 ppm. Cotton plants (Gossypium hirsutum) severely infested by the cotton aphid (Aphis gossypii) are sprayed with an active ingredient formulation of the desired concentration. After the desired time, the kill in % is determined. 100% means that all aphids have been killed; 0% means that no aphids have been killed.

## CCNC(=O)Nc1ccc(S(=O)(=O)CC)c(-c2nc3cc(C(F)(F)C(F)(F)F)nnc3n2C)n1 [Comparison, reference compound]
Nilaparvata lugens [1]
  Emax at 4 g/ha: 0%
Myzus persicae [2]
  Emax at 0.8 ppm: 0%
Myzus persicae [3]
  Emax at 4 g/ha: 0%
Tetranychus urticae
  Emax at 100 g/ha: 0%
Nilaparvata lugens [4]; 168 h, 7 dat
  Emax at 0.8 ppm: 5%
Nilaparvata lugens [4]; 336 h, 14 dat
  Emax at 0.8 ppm: 20%
Nezara viridula
  Emax at 0.8 g/ha: 0%
Aphis gossypii
  Emax at 4 ppm: 15%
